# Patent US20100190755A1, “TETRACYCLINE COMPOUNDS FOR THE TREATMENT OF RHEUMATOID ARTHRITIS AND RELATED METHODS OF TREATMENT” (priority 2008, published 2010)
# Tests used:
# [1] = test system: IL-6; assay: Paw extract biomarker ELISA, CIA mice: IL-6; format: in vivo, mouse; conditions: paw extracts from CIA mice
# Protocol: (§1) • 1. Male DBA/1 mice were immunized i.d. with an emulsion of 200 μg bovine type II collagen in Complete Freund's Adjuvant. • 2. On day 21, mice received i.d. boost of 100 μg collagen in Incomplete Freund's Adjuvant • 3. Compounds were administered i.p. daily for 7 days starting from disease onset (day 3-4 after boost). • 4. Foot swelling was measured by an engineering micrometer and disease severity was scored accordingly (1, erythema and mild swelling confined to the tarsal or ankle joint; 2, erythema and mild swelling extending from the ankle to the mid-foot; 3, erythema and moderate swelling extending from the ankle to the metatarsal joints; 4, erythema and severe swelling encompassing the ankle, foot, and digits). • 5. Change (Δ) of paw thickness=sum of paw thickness from 4 paws of a mouse (experimental)−sum of baseline paw thickness from 4 paws of the same mouse. • 6. % inhibition=cumulative A paw thickness (disease group−compound-treated group)/cumulative A paw thickness (disease group)
# (§2) • 1. Paws were collected from mice after 5-7 days of dosing and dissected free of skin. • 2. The paws were then homogenized in ice-cold PBS (2 ml/4 paws/mouse) containing 1× protease inhibitor using a Polytron homogenizer. • 3. Debris and particles were removed from the homogenized samples by centrifugation. • 4. Liquid layers were collected for MMP-9, IL-1, IL-6, RANKL, MCP-1, and TNFα analysis using ELISA kits from R & D System.
# [2] = test system: E. coli 25922; assay: Antibacterial activity MIC, Gram- (Table 9); format: cell-based; conditions: Escherichia coli, CAMHB, 35° C., approximately 18 hr
# Outline: (§3)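 Broth microdilution in cation-adjusted Mueller Hinton broth, compound dissolved in DMSO and serially diluted from 200 μg/ml down to 0.098 μg/ml. Log-phase inoculum at final ~5×10^5 CFU/ml, incubated ~18 h at 35 °C in ambient air; MIC is the lowest concentration inhibiting growth, read by plate reader or visually.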
# [3] = Pharmacokinetics in rats after i.v. and oral dosing; format: in vivo; conditions: rat
# Protocol: Pre-cannulated (jugular vein and carotid artery for i.v. group and carotid artery for oral group) male CD/IGS rats (approximately 250 g) were used. Rats were fasted overnight prior to dosing with access to food restored 2 hours after dosing. Rats were administered with approximately 0.25 mL compound (1 mg/kg dose) for i.v. route (via jugular vein over 20 seconds) or 0.5 mL solution (5 mg/kg dose) orally. Blood (300 μL) was collected in tubes with EDTA anticoagulant at various time points, centrifuged and plasma collected and stored frozen at −20° C. Animals were euthanized by CO2 following the final blood collection. Plasma was extracted (0.1% trifluoroacetic acid in 67% acetonitrile/33% water) and levels of compound quantified by HPLC/MS against a standard curve.
# [4] = test system: collagen-induced arthritis (CIA) in male DBA/1 mice; assay: CIA model, Example 3 (cumulative scores vs untreated controls); format: in vivo; conditions: Mus musculus
# Outline: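 Immunised intradermally with bovine type II collagen in CFA and boosted at day 21 in IFA. After onset, tetracycline derivatives given daily i.p. or orally for 8 to 15 days. Daily visual inflammation scores (0–4 scale) and micrometer paw thickness summed into cumulative scores.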
# [5] = test system: MCP-1; assay: Paw extract biomarker ELISA, CIA mice: MCP-1; format: in vivo, mouse; conditions: paw extracts from CIA mice
# Protocol: as §1, §2
# [6] = test system: IL-1; assay: Paw extract biomarker ELISA, CIA mice: IL-1; format: in vivo, mouse; conditions: paw extracts from CIA mice
# Protocol: as §1, §2
# [7] = test system: E. coli ATCC25922 (tetracycline sensitive); assay: E. coli MIC, broth micro-dilution per CLSI guidelines (Table 3); format: cell-based
# [8] = test system: RANKL; assay: Paw extract biomarker ELISA, CIA mice: RANKL; format: in vivo, mouse; conditions: paw extracts from CIA mice
# Protocol: as §1, §2
# [9] = test system: collagen-induced arthritis (CIA) in male DBA/1 mice; assay: Murine collagen-induced arthritis (CIA) model, Example 2; format: in vivo, mouse
# Protocol: Four non-antibacterial analogues of minocycline (J, W, AF and AT) were synthesized and tested in the murine model of the disease, collagen-induced arthritis (CIA) (See supra). Male DBA/1 mice were immunized intradermally with 200 μg of bovine type II collagen and boosted with collagen three weeks later. Minocycline and four non-antibacterial minocycline derivatives were administered i.p. beginning after disease onset. Paw thickness was measured and animals were scored daily.
# as §1
# [10] = test system: Protein synthesis (E. coli S30 Extract System); assay: Protein synthesis inhibition, in vitro transcription/translation assay (E. coli S30 Extract System for Circular DNA); format: biochemical
# [11] = test system: S. aureus RN450; assay: Antibacterial activity MIC, Gram+ (Table 9); format: cell-based; conditions: Staphylococcus aureus, CAMHB, 35° C., approximately 18 hr
# Outline: as §3
# [12] = test system: MMP-9; assay: Paw extract biomarker ELISA, CIA mice: MMP-9; format: in vivo, mouse; conditions: paw extracts from CIA mice
# Protocol: as §1, §2
# [13] = test system: cytokines (IL-1, IL-6, RANKL and MCP-1) and a matrix metalloproteinase (MMP-9); assay: Paw extract biomarker ELISA, CIA mice: whole panel (statements in words); format: in vivo, mouse
# Protocol: as §1, §2
# [14] = 25 mg/kg/day i.p., dosed after disease onset
structure (smiles),measurement,setting,value
CCc1cc(N(C)C)c2c(c1O)C(=O)C1=C(O)[C@]3(O)C(=O)C(C(N)=O)=C(O)C[C@@H]3C[C@@H]1C2 [Compound AF],"Percent level of Biomarker Tissue [c] Compared to Untreated Control, IL-6 AVG",[1],35%
same,MIC,[2],> 64 µg/mL
same,bioavailability,"[3]; male, CD/IGS, plasma, after oral dosing of 5 mg/kg, read-out: PK Parameters (Rat) % F, fraction of absorption",77%
same,bio-available after oral dosing in rats,[3]; oral,bio-available
same,half-life,"[3]; plasma, male CD/IGS rats, 1 mg/kg i.v. or 5 mg/kg oral, read-out: PK Parameters (Rat) T1/2 (converted)",186 min
same,inhibition in vivo at 6 mg/kg,[4]; Dose 6 mg/kg,28%
same,inhibition in vivo at 12 mg/kg,[4]; Dose 12 mg/kg,49%
same,inhibition in vivo at 35 mg/kg,[4]; Dose 35 mg/kg,62%
same,"Percent level of Biomarker Tissue [c] Compared to Untreated Control, MCP-1 AVG",[5],43%
same,"Percent level of Biomarker Tissue [c] Compared to Untreated Control, IL-1 AVG",[6],55%
same,anti-bacterial activity compared to minocycline,[7],no anti-bacterial activity
same,MIC,"[7]; Escherichia coli, E. coli ATCC25922, cation-adjusted Mueller Hinton broth",> 64 µg/mL
same,"Percent level of Biomarker Tissue [c] Compared to Untreated Control, RANKL AVG",[8],38%
same,% Inhibition (Change in Paw Thickness) AVG,[9]; [14],62%
same,% Inhibition (Clinical Score) AVG,[9]; [14],42%
same,EC50 in inflammation suppression in CIA mice,"[9]; CIA mice, i.p. daily",12 mg/kg/day i.p.
same,Change in Paw Thickness (mm) Mean,"[9]; day 1 of dosing, 25 mg/kg/day i.p.",0.55 mm
same,Change in Paw Thickness (mm) Mean,"[9]; day 2 of dosing, 25 mg/kg/day i.p.",0.39 mm
same,Change in Paw Thickness (mm) Mean,"[9]; day 3 of dosing, 25 mg/kg/day i.p.",0.61 mm
same,Change in Paw Thickness (mm) Mean,"[9]; day 4 of dosing, 25 mg/kg/day i.p.",0.49 mm
same,Change in Paw Thickness (mm) Mean,"[9]; day 5 of dosing, 25 mg/kg/day i.p.",0.46 mm
same,Change in Paw Thickness (mm) Mean,"[9]; day 6 of dosing, 25 mg/kg/day i.p.",0.38 mm
same,Change in Paw Thickness (mm) Mean,"[9]; day 7 of dosing, 25 mg/kg/day i.p.",0.42 mm
same,Change in Paw Thickness (mm) Mean,"[9]; day 8 of dosing, 25 mg/kg/day i.p.",0.54 mm
same,Effects on reduction of paw swelling and clinical score compared to either minocycline or methotrexate,[9]; murine CIA model,greater
same,joint inflammation when administered after disease onset,[9]; murine CIA model,inhibited joint inflammation
same,IC50,[10],> 100 µM
same,MIC,[11],1 µg/mL
same,"Percent level of Biomarker Tissue [c] Compared to Untreated Control, MMP-9 AVG",[12],113%
same,"inhibition of inflammatory/osteoclastic cytokines (MMP-9, IL-1, IL-6, MCP-1, RANKL) in vivo",[13],better than minocycline
